Results published in patent US8987212B2, “Oleanoyl peptide composition and method of treating skin aging” (priority 2007, dated 2015).
Where a SMILES comes first, the peptide text is derived from it. The star is where a group is joined. X1 = CC1(C)CC[C@]2(C(=O)*)CC[C@]3(C)C(=CCC4[C@@]5(C)CC[C@H](O)C(C)(C)C5CC[C@]43C)C2C1

Assays:
Interleukin-6 (IL-6) = experiment: Extracellular IL-6 from LPS-challenged human neutrophils; assay type: cell-based; details: for % activity IL-6 expression against LPS control: ↓ = inhibition
Description: (§1) Experimental observations were made in human neutrophil that were challenged with LPS. […] Rolipram at 100 μg/ml dose level was used as a standard drug to observe the authenticity and reproducibility of the experimental design.

[1] = DPPH free radical scavenging assay
Description: The DPPH assay is often used to evaluate the ability of antioxidants to scavenge free radicals which are known to be a major factor in biological damages caused by oxidative stress. This assay is known to give reliable information concerning the antioxidant ability of the tested compounds. The assay is based on the color change of the stable free radical DPPH from purple to yellow as the radical is quenched by the antioxidant.
The assay mixture tubes containing 1.5 ml of 0.1 mM DPPH methanolic solution and varying concentrations of the sample in a total volume of 3 ml were incubated at 37° C. for 30 minutes in a shaking water bath. The reduction in absorbance which is directly proportional to the radical scavenging is measured spectrophotometrically at 517 nm. […] The percentage of scavenging is calculated as follows, % scavenging=[(C−T)/C]×100 Where C=absorbance in the absence of inhibitor
T=absorbance in the presence of inhibitor

Human osteosarcoma cells = experiment: Collagen enhancement by Sirius Red staining; assay type: cell-based; details: at 1.25 ppm, 48 hrs, vs untreated cells
Description: Collagen enhancement was determined by using Sirius Red stain that binds with a greater specificity to Collagen type I and Collagen type III of the extracellular matrix. The stain bound to the collagen is dissolved and the optical density (OD) is measured spectrophotometrically using a Fluostar optima microtiter plate reader at 544 nm. The OD of the stain bound to collagen is directly proportional to the collagen content in the cells.
Human osteosarcoma cells from human bone were used for collagen enhancement studies. The cells were seeded with a seeding density of 10000 cells per well of a 24 well plate. Confluent monolayers of cells were initially treated with varying non cytotoxic concentrations of Oleanoyl peptide and vehicle (control) in the culture medium. For each concentration, 4 replicates were maintained and the analysis was performed twice such that the ‘n’ value is 8. After sample treatment, the cells were incubated in a CO2 incubator for 48 hrs. The cells were then developed by Sirius red staining technique to analyze the collagen enhancement. The cells were washed extensively with PBS. The cells were fixed using Bouin's fluid containing 1.3% picric acid, 35% formaldehyde and glacial acetic acid in 15:5:1 ration by incubating with 1 ml of Bouin's fluid per well for 1 hr at RT. The fixative is then removed by suction with micropipette and the cells were washed under running tap water for 15 minutes. After air drying the culture plate, the cells were stained using 0.1% Sirius red stain in 1.3% picric acid. 1 ml per well Sirius red stain was added and the cells were incubated for 1 hr under mild shaking of 70 RPM at RT in Orbitek Shaker. The stain was then removed by suction and the cells were extensively washed with 0.01N HCl to remove unbound dye. The dye bound to collagen was then dissolved in 0.2 ml of 0.1N NaOH per well for 30 minutes under mild shaking of 70 RPM in Orbitek Shaker at RT. The dye was then transferred to 96 well microplate and the OD was read at 544 nm in Fluostar Optima microplate reader.
The percentage enhancement in collagen with respect to the untreated cells considering the OD of untreated cells as optimal under normal conditions is calculated as follows, % enhancement in […]=[(100/C)×T]−100 Where C=absorbance due to collagen in untreated cells
T=absorbance due to collagen in sample treated cells

[2] = system: Interleukin-1beta (IL-1β); experiment: Extracellular IL-1β from LPS-challenged human neutrophils; assay type: cell-based; details: for % activity IL-1β expression against LPS control: ↓ = inhibition
Description: as §1

[3] = system: B16F1 mouse melanoma cells; experiment: Melanin inhibition in α-MSH induced melanoma cells; assay type: cell-based
Description: B16F1 mouse melanoma cells were seeded in a 6 well microtiter plate at a seeding density of 5000 cells per well in 2 ml DMEM medium per well. After 24 hours of incubation in a CO2 incubator, melanin production is induced by 0.1 nM ∝-MSH by replacing the medium with medium containing ∝-MSH. The cells were then treated with varying concentrations of sample (composition containing oleanoyl peptide and stilbenes/licorice extract/THC) over a period of 9 days with renewal of ∝-MSH containing medium and sample at regular intervals of 3 days. Control wells were maintained without sample treatment and only with the vehicle used for sample preparation. After the incubation period, the medium was removed and the cells were scraped and washed in PBS. Thereafter, melanin was extracted by 1N NaOH in boiling water bath for 5 minutes. The absorbance of the melanin extract was read at 405 nm in a microplate reader. The inhibitory effect of the sample is calculated based on the decrease of melanin formation.
T=absorbance due to melanin in the presence of inhibitor

[4] = target: Collagenase Type IV from Clostridium histolyticum; details: Collagenase Type IV 0.2 U/ml, DQ gelatin, 30 minutes
Prostaglandin E2 (PGE2) = experiment: Extracellular PGE2 from LPS-challenged human neutrophils; assay type: cell-based; details: for % activity PGE2 expression against LPS control: ↓ = inhibition
Description: as §1
The Oleanoyl peptide was also screened for NO and PGE2 expression.

[5] = target: porcine pancreatic elastase (Sus scrofa, UniProt P00772); experiment: EnzChek Elastase Assay, elastase inhibitory potential
Chain of porcine pancreatic elastase (P00772 27-266): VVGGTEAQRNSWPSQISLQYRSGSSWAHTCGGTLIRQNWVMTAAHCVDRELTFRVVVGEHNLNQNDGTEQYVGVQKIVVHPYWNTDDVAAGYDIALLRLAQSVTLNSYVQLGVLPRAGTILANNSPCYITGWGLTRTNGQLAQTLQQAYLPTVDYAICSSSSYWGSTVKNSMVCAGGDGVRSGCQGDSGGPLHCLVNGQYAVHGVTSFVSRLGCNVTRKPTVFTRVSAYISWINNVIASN
Description: The EnzChek kit contains DQelastin, fluorescein conjugated soluble bovine neck ligament elastin. This substrate is efficiently digested by elastase to yield highly fluorescent peptides. […] Elastase used for the assay is purified from porcine pancreas.
T=absorbance due to elastase activity in the presence of inhibitor

C[C@@H](O)[C@H](NC(=O)[C@H](CCCCN)NC(=O)[C@]12CCC(C)(C)CC1C1=CCC3[C@@]4(C)CC[C@H](O)C(C)(C)C4CC[C@@]3(C)[C@]1(C)CC2)C(=O)N[C@H](C(=O)N[C@@H](CCCCN)C(=O)N[C@@H](CO)C(=O)O)[C@@H](C)O (stereo partly drawn) [Oleanoyl peptide, Oleanoyl-Lys-Thr-Thr-Lys-Ser-OH] (X1-KTTKS-OH)
Concentration of IL-6 produced (pg/ml) Mean ± S.E. (Interleukin-6 (IL-6); test sample 0.125 μg/ml): 130.38 ± 2.11 pg/mL | Concentration of IL-6 produced (pg/ml) Mean ± S.E. (Interleukin-6 (IL-6); test sample 0.25 μg/ml): 123.92 ± 2.09 pg/mL | Concentration of IL-6 produced (pg/ml) Mean ± S.E. (Interleukin-6 (IL-6); test sample 0.5 μg/ml): 117.23 ± 2.84 pg/mL | Concentration of IL-6 produced (pg/ml) Mean ± S.E. (Interleukin-6 (IL-6); test sample 1 μg/ml): 106.81 ± 3.79 pg/mL | Concentration of IL-6 produced (pg/ml) Mean ± S.E. (Interleukin-6 (IL-6); test sample 2 μg/ml): 104.75 ± 5.31 pg/mL | Concentration of IL-6 produced (pg/ml) Mean ± S.E. (Interleukin-6 (IL-6); test sample 4 μg/ml): 101.11 ± 2.87 pg/mL | % activity IL-6 expression against LPS control (Interleukin-6 (IL-6); test sample 0.125 μg/ml): 8.33↓ % | % activity IL-6 expression against LPS control (Interleukin-6 (IL-6); test sample 0.25 μg/ml): 12.87↓ % | % activity IL-6 expression against LPS control (Interleukin-6 (IL-6); test sample 0.5 μg/ml): 17.58↓ % | % activity IL-6 expression against LPS control (Interleukin-6 (IL-6); test sample 1 μg/ml): 24.90↓ % | % activity IL-6 expression against LPS control (Interleukin-6 (IL-6); test sample 2 μg/ml): 26.35↓ % | % activity IL-6 expression against LPS control (Interleukin-6 (IL-6); test sample 4 μg/ml): 28.03% | % activity IL-6 expression against LPS control (Interleukin-6 (IL-6); test sample 4 μg/ml, listed as OP): 28.91↓ % | Anti-oxidant activity by DPPH Method, % inhibition ([1]; at 300 μg/ml): 29% inhibition at 300 | Anti-oxidant activity by DPPH Method ([1]; result in words): shows DPPH scavenging activity | enhancement in collagen (Human osteosarcoma cells): 17% | Concentration of IL-1β produced (pg/ml) Mean ± S.E. ([2]; test sample 0.125 μg/ml): 130.79 ± 3.07 pg/mL | Concentration of IL-1β produced (pg/ml) Mean ± S.E. ([2]; test sample 0.25 μg/ml): 119.44 ± 2.23 pg/mL | Concentration of IL-1β produced (pg/ml) Mean ± S.E. ([2]; test sample 0.5 μg/ml): 109.72 ± 3.21 pg/mL | Concentration of IL-1β produced (pg/ml) Mean ± S.E. ([2]; test sample 1 μg/ml): 96.61 ± 3.63 pg/mL | Concentration of IL-1β produced (pg/ml) Mean ± S.E. ([2]; test sample 2 μg/ml): 102.08 ± 2.61 pg/mL | Concentration of IL-1β produced (pg/ml) Mean ± S.E. ([2]; test sample 4 μg/ml): 100.45 ± 3.78 pg/mL | % activity IL-1β expression against LPS control ([2]; test sample 0.125 μg/ml): 6.29↓ % | % activity IL-1β expression against LPS control ([2]; test sample 0.25 μg/ml): 14.42↓ % | % activity IL-1β expression against LPS control ([2]; test sample 0.5 μg/ml): 21.39↓ % | % activity IL-1β expression against LPS control ([2]; test sample 1 μg/ml): 31.78% | % activity IL-1β expression against LPS control ([2]; test sample 1 μg/ml, listed as OP): 30.78↓ % | % activity IL-1β expression against LPS control ([2]; test sample 2 μg/ml): 26.86↓ % | % activity IL-1β expression against LPS control ([2]; test sample 4 μg/ml): 28.03↓ % | reduction in melanin ([3]; result in words, FIG. 15): no significant reduction in melanin | Melanin inhibition IC50 (μg/ml), Individual active ([3]; α-MSH induced, 9 days): Not significant | Collagenase inhibition (IC50 μg/ml) [4]: 119 µg/mL | Concentration of PGE2 produced (pg/ml) Mean ± S.E. (Prostaglandin E2 (PGE2); test sample 0.125 μg/ml): 573.82 ± 6.08 pg/mL | Concentration of PGE2 produced (pg/ml) Mean ± S.E. (Prostaglandin E2 (PGE2); test sample 0.25 μg/ml): 501.64 ± 7.56 pg/mL | Concentration of PGE2 produced (pg/ml) Mean ± S.E. (Prostaglandin E2 (PGE2); test sample 0.5 μg/ml): 468.31 ± 6.41 pg/mL | Concentration of PGE2 produced (pg/ml) Mean ± S.E. (Prostaglandin E2 (PGE2); test sample 1 μg/ml): 419.53 ± 5.07 pg/mL | Concentration of PGE2 produced (pg/ml) Mean ± S.E. (Prostaglandin E2 (PGE2); test sample 2 μg/ml): 384.44 ± 8.02 pg/mL | Concentration of PGE2 produced (pg/ml) Mean ± S.E. (Prostaglandin E2 (PGE2); test sample 4 μg/ml): 395.81 ± 4.68 pg/mL | % activity PGE2 expression against LPS control (Prostaglandin E2 (PGE2); test sample 0.125 μg/ml): 25.37↓ % | % activity PGE2 expression against LPS control (Prostaglandin E2 (PGE2); test sample 0.25 μg/ml): 34.76↓ % | % activity PGE2 expression against LPS control (Prostaglandin E2 (PGE2); test sample 0.5 μg/ml): 39.09↓ % | % activity PGE2 expression against LPS control (Prostaglandin E2 (PGE2); test sample 1 μg/ml): 45.44↓ % | % activity PGE2 expression against LPS control (Prostaglandin E2 (PGE2); test sample 2 μg/ml): 50.00% | % activity PGE2 expression against LPS control (Prostaglandin E2 (PGE2); test sample 2 μg/ml, listed as OP): 50.00↓ % | % activity PGE2 expression against LPS control (Prostaglandin E2 (PGE2); test sample 4 μg/ml): 48.52↓ % | IC50 [5]: 143 µM
